Tests used:
Format in all cases: cell-based, human
[1] = tested on: hyaluronic acid (HA); assay: HA measurement in culture medium of HaCaT cells (HA-ELISA); conditions: relative to 0 = 1.00
Procedure: HA measurement was carried out as described (BBRC, 2004, 316: 348-355). Briefly, HaCaT or HDF cells were seeded and incubated in 24-well plates to confluency. Immediately before experiments, cells were washed twice with serum-free medium to completely remove HA accumulated during cell growth. The cells were then cultured with or without different compounds in 0.5 ml serum-free medium for 48 h. At the indicated time, aliquots of medium were removed, centrifuged at 15000 g for 5 min, and supernatants were analyzed for HA using an enzyme-linked immunosorbent assay (ELISA) kit (Echelon Bioscience, Salt Lake, Utah).
Results shown represent the fold of induction of the astragalosides on hyaluronic acid expression in HaCaT cells. The concentrations of astragalosides used were 0, 1, or 10 μM (unless indicated otherwise) for astragaloside pure compounds; were 0, 0.5, 1, 2.5, 5, 10, 40 μg/mL for the butanol fraction (unless indicated otherwise); and were 0, 1, 10, 40 μg/mL for the water insoluble fraction (unless indicated otherwise). The cells were treated with the indicated compounds for 24 h before harvested for analysis of secreted hyaluronic acid in culture medium using HA-ELISA kit.

[2] = tested on: MMP-2; assay: Zymography of MMP-2 in HaCaT cells; conditions: relative to 0 = 1.00
Procedure: The proteolytic activities of MMPs from HaCaT and HDF cells were measured essentially as described elsewhere (Circ Res, 1999; 85:906-911). The cells were seeded for 24 h and then treated with various concentrations of astragalosides for another 48 h. The conditioned culture medium was then centrifuged, 2-fold concentrated, and saved for assay of collagens and MMPs expressed into the culture medium. The cells were then lysed in lysis buffer (1% Triton, 50 mM Tris-Cl, pH 7.4, 180 mM NaCl, 1 mM EDTA). Protein concentration of the samples was measured using the bicinchoninic acid (BCA) protein assay kit as described. Samples of concentrated conditioned medium and cell lysates were mixed with non-reducing electrophoresis loading buffer and subjected to electrophoresis under non-reducing conditions, which was carried out on a 10% SDS-PAGE co-polymerized with 2 mg/mL gelatin or casein (Sigma, St. Louis, Mo. USA). For zymographic analysis of pro-MMP-2 and activated MMP-2, the total 20 μg of culture medium were used for electrophoresis. Following electrophoresis, renaturation of the proteins was achieved by incubating the gels in 25 g/L Triton X-100 at room temperature for 2×10 min. Subsequently the gels were incubated in 50 mM Tris-HCl, pH 7.5 containing 0.2 M NaCl, 0.02% Brij35 and 10 mM CaCl2 at 37° C. for 18 h. After staining the gels with Coomassie Brilliant Blue R-250 and destaining, zones of proteolytic activities became visible as transparent bands in the stained gel. In order to obtain higher sensitivity, the gels were further destained in a solution of 1% Triton x-100 (1 to 2 h). This procedure increased the signal-to-noise ratio, allowing the visualization of faint gelatinase bands at 92, 125 and greater than 200 kDa. Zymograms were read using a Molecular Dynamics (Sunnyvale, Calif., USA) computing laser densitometer with Image Quant software.
Results shown in Tables 6A and 6B represent the quantitated data from zymography analysis of MMP-2 protein in HaCaT cells and qRT-PCR for MMP-1 in HDF cells. The concentrations used were 0, 0.01. 0.1, 1 μM (if not indicated otherwise) for pure compounds; and were 0, 1, 10, 40 μg/mL for crude extract (if not indicated otherwise). The cells were treated with the indicated compounds for 24 h before harvested for analysis of Pro-MMP-2 or activated MMP-2 in whole cell extract. Fifty micrograms of the cell extract samples were used for electrophoresis.

[3] = tested on: HaCaT cells; assay: Proline uptake assay in HaCaT cells; conditions: 0.1 μM; for Uptake rate (proline): 48 h treatment; for Percentage (%) of control proline uptake: control = 100.00
Procedure: The proline uptake assay was carried out as described (Biochim Biophys Acta. 1104:283-292, 1992). Briefly, HaCaT cells were seeded into a 24-well plate at a density of 3×10^4 cells/well and cultured for 24 h. The cells were then treated in the absence (solvent control) or presence of various concentrations of astragalosides or crude extracts from Astragalus membranaceus for another 48 h. The treated cells were then washed once with PBS and incubated in amino acid free medium (AAFM) for another 30 min. The treated cells were them replaced with fresh AAFM containing 50 μg/ml of ascorbate and total of 0.5 mM of L-proline containing 1 μCi [^3H] Proline (American Radiolabelled Chemicals Inc, ARC, St. Louis, Mo., USA). At designated time interval, the cells were washed with AAFM containing cold proline and then lysed in 200 μL of 2% SDS. Cell lysates were centrifuged at 15000 g for 15 min. Intracellular proline uptaken by the cells was determined by transferring 10 μL of the cell lysate to filter-bottomed UniFilter plates (Perkim-Elmer) and counted. Protein concentration of the samples were measured using the BCA protein assay kit as described above. Proline accumulated in the cells was calculated and normalized to protein concentration and uptake rate was expressed as nmole of L-proline per minute per milligram of cell protein ([…]).

| Compound | HA in medium (fold of induction) ([1]; 1 μM) | HA in medium (fold of induction) ([1]; 10 μM) | ProMMP-2/MMP2 in medium ([2]; 0.01 μM) | ProMMP-2/MMP2 in medium ([2]; 0.1 μM) | ProMMP-2/MMP2 in medium ([2]; 1 μM) | Uptake rate (proline) [3] [pmol/mg/min] | Percentage (%) of control proline uptake [3] [%] |
| --- | --- | --- | --- | --- | --- | --- | --- |
| CC(=O)O[C@H]1[C@H](O[C@H]2CC[C@]34C[C@]35CC[C@]3(C)[C@@H]([C@@]6(C)CC[C@@H](C(C)(C)O)O6)[C@@H](O)C[C@@]3(C)[C@@H]5C[C@H](O[C@@H]3O[C@H](CO)[C@@H](O)[C@H](O)[C@H]3O)[C@H]4C2(C)C)OC[C@@H](O)[C@@H]1O [AS2, astragaloside II] | 1.98 | 1.31 | 0.89 | 0.89 | 0.67 | 0.9770 ± 0.1119 | 141.52 |
| CC(C)(O)[C@@H]1CC[C@](C)([C@H]2[C@@H](O)C[C@@]3(C)[C@@H]4C[C@H](O)[C@H]5C(C)(C)[C@@H](O[C@@H]6OC[C@@H](O)[C@H](O)[C@H]6O[C@@H]6O[C@H](CO)[C@@H](O)[C@H](O)[C@H]6O)CC[C@@]56C[C@@]46CC[C@]23C)O1 [AS3, astragaloside III] |  |  | 0.76 | 0.57 | 0.81 | 0.7213 ± 0.0090 | 104.48 |
| CC(C)(O)[C@@H]1CC[C@](C)([C@H]2[C@@H](O)C[C@@]3(C)[C@@H]4C[C@H](O[C@@H]5O[C@H](CO)[C@@H](O)[C@H](O)[C@H]5O)[C@H]5C(C)(C)[C@@H](O[C@@H]6OC[C@@H](O)[C@H](O)[C@H]6O)CC[C@@]56C[C@@]46CC[C@]23C)O1 [AS4, astragaloside IV] | 2.27 | 1.31 |  |  |  | 0.7628 ± 0.1015 | 110.50 |
| CC(C)(O)[C@@H]1CC[C@](C)([C@H]2[C@@H](O)C[C@@]3(C)[C@@H]4C[C@H](O[C@@H]5O[C@H](CO)[C@@H](O)[C@H](O)[C@H]5O)[C@H]5C(C)(C)[C@@H](O[C@@H]6OC[C@@H](O)[C@H](O)[C@H]6O[C@@H]6O[C@H](CO)[C@@H](O)[C@H](O)[C@H]6O)CC[C@@]56C[C@@]46CC[C@]23C)O1 [AS6, astragaloside VI] | 1.13 | 1.38 | 0.89 | 0.67 | 0.74 |  |  |
| astragaloside I [AS1] | 1.45 | 1.36 | 0.57 | 0.57 | 0.86 | 0.8627 ± 0.0741 | 124.97 |
